In paper PMC12512767, “Discovery of new aurone derivatives as submicromolar CK2 inhibitors” (Journal of Enzyme Inhibition and Medicinal Chemistry, 2025):

How the values were obtained:
[1] = biological target: T1, recombinant human protein kinase CK2 alpha subunit (Homo sapiens, UniProt P68400); test: Luminescent (Kinase-Glo) CK2 screening assay; type: biochemical; details: inhibitor 1 μM; ATP 10 µM, peptide substrate RRRDDDSDDD 200 µM; 30 °C, 40 min; triplicate; LI = luciferase inhibition (luminescence lower than control)
T1 sequence (P68400 whole entry): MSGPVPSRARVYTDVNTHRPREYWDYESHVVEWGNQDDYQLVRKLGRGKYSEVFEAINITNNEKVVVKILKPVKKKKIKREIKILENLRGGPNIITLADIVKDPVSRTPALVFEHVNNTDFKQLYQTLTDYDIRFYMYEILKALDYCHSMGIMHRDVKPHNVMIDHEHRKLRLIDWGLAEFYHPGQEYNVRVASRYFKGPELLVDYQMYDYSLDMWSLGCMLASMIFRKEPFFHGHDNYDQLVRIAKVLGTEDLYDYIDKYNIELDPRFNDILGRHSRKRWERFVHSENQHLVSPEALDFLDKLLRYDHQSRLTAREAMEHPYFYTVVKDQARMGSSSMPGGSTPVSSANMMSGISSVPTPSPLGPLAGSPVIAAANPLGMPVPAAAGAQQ
Protocol: (§1) The study was conducted using recombinant human protein kinase CK2 alpha subunit, obtained using plasmid pZW6 (Addgene, USA, catalogue number 27086), ATP (Sigma-Aldrich, USA, catalogue number A2383) and peptide substrate RRRDDDSDDD (GenScript, USA, catalogue number RP10318). Tris(hydroxymethyl)aminomethane hydrochloride (Tris-HCl) (Sigma-Aldrich, USA, catalogue number 10812846001), KCl (Sigma-Aldrich, USA, catalogue number P3911) and MgCl2 (Sigma-Aldrich, USA, catalogue number 208337) were used to prepare the reaction buffer. Dimethyl sulfoxide (DMSO) (Sigma-Aldrich, USA, catalogue number 472301) was used as a solvent for the compounds. Luminescent assays were performed using Kinase-Glo® kit (Promega, USA, catalogue number V6711). Aurone derivatives were synthesised following the procedure[20] described earlier starting from the benzo[e]benzofuran-1-one intermediate obtained in a known manner. The structures of tested aurone derivatives are given in the Results section.
(§2) The reaction mixture volume was 50 μl. The reaction buffer contained 2 mM Tris HCl, 5 mM KCl and 1 mM MgCl2, pH 7.5. The concentration of CK2 alpha subunit was 2 mg/l per sample in control and experimental samples. The reaction mixtures contained 0.5 μl of inhibitor solution in DMSO per sample (final inhibitor concentrations were different in luminescent and CE assays) or 0.5 μl of pure DMSO in control and calibration samples. The samples were incubated at 30 °C for 40 min.
The luminescent assay measured sample luminescence following the addition of the Kinase-Glo luciferase mixture, with the signal reflecting the remaining ATP content. The final ATP concentration indicates the extent of peptide phosphorylation: higher ATP levels correspond to lower peptide phosphorylation. This method was considered as a rapid and straightforward approach for screening a large number of compounds without quantitatively determining their activity.
ATP and peptide substrate were initially present at concentrations of 10 µM and 200 µM, respectively. Calibration samples, which lacked the enzyme, represented the initial ATP concentration. The inhibitor concentration in experimental samples was 1 µM. Measurements were performed using a LuMate 4400 microplate reader (Awareness Technology, USA). Luminescence was recorded after adding 50 µL of the Kinase-Glo luminescent mixture to each sample. In order to simplify the screening process, no signal–concentration calibration curve was constructed for precise ATP quantification. Instead, luminescence values of experimental and control samples were compared directly with those of enzyme-free calibration samples, which reflected the initial ATP level. The percentage of inhibition was determined by the formula: I=100∗(Me−Mc)/(Mo−Mc)
I is the inhibition in percent, Me, Mc and Mo are the luminescence of the experimental, calibration and control samples, respectively. The experiments were performed in triplicate, after which the obtained values were averaged.
This effect may result from the inhibition of luciferase activity. The decrease in luminescence reflects not increased ATP consumption by CK2 during peptide phosphorylation, but rather reduced oxyluciferin formation – the luminescent product – caused by luciferase inhibition by the test compound. The manufacturer of the Kinase-Glo kit, as well as practical studies of protein kinases claim the possibility of this effect[23]^,[24]. […] Furthermore, some compounds with potential luciferase inhibitory activity could have produced false-negative results.
This deviation was most pronounced in samples with low absolute luminescence values (and consequently, low inhibition).

[2] = biological target: T1, recombinant human protein kinase CK2 alpha subunit; test: Capillary electrophoresis (CE) CK2 assay; type: biochemical; details: ATP 100 µM, peptide substrate 100 µM; 30 °C, 40 min; triplicate; Hill fit
Protocol: as §1, §2
The initial concentrations of ATP and peptide substrate were 100 µM. The reaction was stopped by adding 100 μl of 20 mM EDTA disodium salt. All IC50 studies were performed in triplicate. Mean conversion values for each concentration were used for construction of the conversion-versus-concentration curves and IC50 determination.
The conversion was determined by the formula: C=100∗P/P+N
C is the conversion in percent, P is the peak area of the phosphorylated product, and N is the peak area of the substrate.
Inhibition was calculated using the formula: I=100∗ Co−Ce/Co
I – inhibition in percent, Со – conversion in control sample, Се – conversion in experimental sample.
For the tested compounds, inhibition curves were plotted as a function of concentration and fitted using the Hill equation: y=x^n/k^n+x^n y – inhibition in percent, x – inhibitor concentration, k – IC50 value, n – Hill coefficient.
Inhibition curves were built using at least four data points, with additional concentrations tested for some compounds to refine the curve’s shape. The IC50 value was determined from the fitted curve as the concentration producing 50% inhibition.
All electrophoretic separations were performed with a capillary electrophoresis system Сapel-105M (Lumex). Fused silica (Lumex) of a total length of 75 cm (effective length 65 cm) with inner diameter 50 μm was used. Before use, fused silica was washed for 5 min with 0.1 M HCl solution, then 5 min with distilled water, then 5 min with 0.1 M NaOH solution, again for 5 min with distilled water and for 5 min with background electrolyte (BGE).
A 150 mM orthophosphoric acid (pH 1.2) was used as BGE. Before electrophoretic separation, 350 μl of deionised water was added to the samples. Samples were introduced hydrodynamically at 900 mbar*s. The electrophoresis voltage was 25 kV. Electrophoretic separation was carried out in positive polarity. Detection conducted at a wavelength of 192 nm. Instrument control, data collection and integration were performed with Elforun (Lumex) software.

Compound	I (%) (inhibition) [1]	IC50 [2] [nM]
Cc1cc(C=C2Oc3ccc4ccccc4c3C2=O)ccc1O [Compound 45]	<25	–
O=C(O)COc1ccc2c(c1)OC(=Cc1ccc(C(=O)O)cc1)C2=O [Compound 12]	<25	–
O=C1/C(=C/c2ccccc2O)Oc2cc(O)ccc21 [Compound 3]	<25	–
O=C1C(=Cc2ccc(O)c(F)c2)Oc2c1ccc1ccccc21 [Compound 36]	<25	–
O=C1C(=Cc2ccc(O)c(F)c2)Oc2ccc3ccccc3c21 [BFO24]	95 ± 23	220
COc1ccc2c(c1)OC(=Cc1ccc(O)c(OC)c1)C2=O [Compound 10]	27 ± 19	–
Cc1cc(C=C2Oc3ccc(Cl)cc3C2=O)ccc1O [Compound 17]	<25	–
O=C1C(=Cc2ccc(O)cc2)Oc2c1ccc1ccccc21 [Compound 23]	<25	–
O=C(O)c1ccc(C=C2Oc3ccc4ccccc4c3C2=O)cc1 [Compound 39]	69 ± 24	–
COc1cc(C=C2Oc3ccc4ccccc4c3C2=O)cc([N+](=O)[O-])c1O [BFO26]	90 ± 7	130
O=C(O)COc1ccc2c(c1)OC(=Cc1cccc(F)c1)C2=O [Compound 11]	<25	–
O=C1C(=Cc2cccc(O)c2)Oc2ccc3ccccc3c21 [Compound 40]	<25	–
O=C1C(=Cc2ccc(O)c(F)c2)Oc2ccc(Cl)cc21 [Compound 16]	<25	–
O=C1C(=Cc2ccc(O)c(F)c2)Oc2ccc(Br)cc21 [Compound 15]	<25	–
Cc1cc(C=C2Oc3c(Cl)ccc(Cl)c3C2=O)ccc1O [Compound 18]	<25	–
O=C1C(=Cc2ccc(O)c([N+](=O)[O-])c2)Oc2c1ccc1ccccc21 [BFO22]	80 ± 13	680
O=C1C(=Cc2ccc(O)c(Cl)c2)Oc2ccc3ccccc3c21 [BFO25]	88 ± 11	3
O=C(O)c1ccc(C=C2Oc3cc(O)ccc3C2=O)cc1 [Compound 4]	41 ± 9	–
O=C(O)c1cc(C=C2Oc3ccc4ccccc4c3C2=O)ccc1O [Compound 48]	32 ± 24	–
O=C1C(=Cc2cc(Br)c(O)c(Br)c2)Oc2c1ccc1ccccc21 [Compound 35]	39 ± 14	–
O=C(O)c1cc(C=C2Oc3c(ccc4ccccc34)C2=O)ccc1O [Compound 31]	<25	–
O=C1C(=Cc2cc(Cl)c(O)c(Cl)c2)Oc2c1ccc1ccccc21 [Compound 33]	<25	–
O=C1C(=Cc2ccc(O)c(Cl)c2)Oc2c1ccc1ccccc21 [Compound 32]	68 ± 15	–

Compound	I (%) (inhibition) [1]	IC50 [2] [nM]
COc1cc(C=C2Oc3c(ccc4ccccc34)C2=O)ccc1O [Compound 28]	<25	–
O=C1C(=Cc2ccc(O)c(Br)c2)Oc2ccc3ccccc3c21 [BFO27]	86 ± 1	13
Cc1cc2c(c(C)c1Cl)C(=O)C(=Cc1ccc(O)c(F)c1)O2 [Compound 21]	<25	–
O=C1/C(=C/c2cc(Br)c(O)c(Br)c2)Oc2ccc3ccccc3c21 [Compound 54]	69 ± 1	–
O=C(O)c1ccc(C=C2Oc3c(ccc4ccccc34)C2=O)cc1 [Compound 22]	<25	–
O=C1C(=Cc2cc(Cl)c(O)c(Cl)c2)Oc2ccc3ccccc3c21 [Compound 51]	78 ± 22	–
COc1cc(C=C2Oc3ccc4ccccc4c3C2=O)ccc1O [BFO23]	85 ± 14	130
COc1cc(C=C2Oc3cc(O)ccc3C2=O)cc(Cl)c1O [Compound 5]	48 ± 21	–
COc1cccc(C=C2Oc3ccccc3C2=O)c1O [Compound 2]	<25	–
Cc1cc(C=C2Oc3ccc(Br)cc3C2=O)ccc1O [Compound 14]	<25	–
O=C1C(=Cc2ccc(O)c(O)c2)Oc2ccc3ccccc3c21 [Compound 41]	<25	–
COc1ccc2c(c1)OC(=Cc1cccc(O)c1)C2=O [Compound 8]	<25	–
CCOc1cc(/C=C2\Oc3cc(O)ccc3C2=O)ccc1O [Compound 6]	<25	–
COc1cc(C=C2Oc3ccc4ccccc4c3C2=O)cc(Cl)c1O [Compound 52]	46 ± 15	–
COc1ccc2c(c1)OC(=Cc1ccc(O)cc1)C2=O [Compound 9]	<25	–
O=C1C(=Cc2ccccc2O)Oc2ccc(O)cc21 [Compound 13]	<25	–
O=C1C(=Cc2ccc(O)c(Br)c2)Oc2c1ccc1ccccc21 [Compound 34]	<25	–
O=C1/C(=C/c2ccc(O)c(F)c2)Oc2ccccc21 [Compound 1]	36 ± 12	–
O=C1C(=Cc2ccc(O)cc2)Oc2ccc3ccccc3c21 [Compound 38]	<25	–
O=C1C(=Cc2ccc(O)c(F)c2)Oc2c(Cl)ccc(Cl)c21 [Compound 19]	61 ± 15	–
COc1ccc2c(c1)OC(=Cc1ccccc1O)C2=O [Compound 7]	<25	–
Cc1cc(/C=C2\Oc3cc(C)c(Cl)c(C)c3C2=O)ccc1O [Compound 20]	<25	–
